Results taken from patent US20260102387A1, “IMMUNOSUPPRESSIVE COMPOUNDS” (UNIVERSITÄT BASEL, priority 2022, published 2026).

Legend:
[1] = tested on: human peripheral blood mononuclear cells; assay: Mixed Lymphocyte Reaction, tritiated-thymidine uptake; assay type: cell-based; details: human PBMCs
Description: For assessment of the suppression of alloresponses by coronin 1 modulators using the MLR methodology, heparinized or EDTA treated blood or buffy coat from two healthy volunteers were enriched for […] using the standard Histopaque 1.077 gradient centrifugation methodology as detailed above. Post enrichment, one of the donors PBMCs was considered as “responders” and the other as “stimulators”. The “stimulators” were treated with mitomycin to prevent proliferation while the “responders” PBMCs were left untreated. The stimulator and responder PBMCs were washed extensively with plain RPMI and subsequently counted and seeded in 96 well plate at a density of 0.1 million cells/well each (responders plus stimulators=0.2 million cells/well) in a volume of 200 μl RPMI-1640 (Sigma) containing 1× penicillin and streptomycin (Gibco), 2 mM L-glutamine (Gibco) and 10% heat inactivated FCS (PAA) along with the vehicle (DMSO) or coronin 1 expression inhibitor at indicated concentrations. Cells were incubated in a 37° C. humidified incubator with a 5% CO2 for five days with the expression inhibitor and at the end of which 0.5 μCi of tritiated thymidine was added to all wells and further incubated for 20 h followed by harvesting on a GF/C filter and measuring the DNA-incorporated counts using a Packard instrument as a measure of immune responses (FIG. 10).

BRD3 = molecular target: T1, BRD3 (Rattus norvegicus, UniProt D3ZWU1); assay: Thermal Proteome Profiling in RBL cells: BRD3; assay type: binding; details: 6 μM
T1 construct: endogenous in cells; host or cells: RBL (rat basophil leukemia) cells
Description: To identify the target of the coronin 1 modulatory compounds, Thermal Proteome Profiling (TPP), a methodology based on the property of proteins to alter their thermal stability upon interactions with small molecules (Savitski, M. M., et al., Science, 2014. 346(6205): p. 1255784), was employed. To that end, Rat Basophil Leukemia (RBL) cells were incubated with the compound 12e followed by gradient thermal denaturation (37/41/44/47/50/53/56/59/63/67 degree C.) and mass spectrometric assessment of proteins that get either stabilized or destabilized upon interacting with the compound performed. […]
Thermal proteome profiling was performed as described (Savitski, M. M., et al., Science, 2014. 346(6205): p. 1255784). In brief, RBL cells (50 millions/condition) were incubated with the vehicle DMSO or the compound 12e at 6, 3 or 0 μM concentration for a period of 1 h at the end of which, the cells were washed in ice cold PBS, counted and subjected to thermal denaturation (37/41/44/47/50/53/56/59/63/67° C.) for 3 minutes, lysed by freeze thawing in liquid nitrogen and supernatant containing the soluble proteins separated by centrifugation at 100,000 g for 30 minutes. Equal volumes of the supernatant were taken, subjected to tryptic digestion and labelling with 10 plex-TMT (Thermo Fisher) and the labelled peptides analyzed and quantitated using mass spectrometry (FIG. 13).

BRD3 BD1 = molecular target: T2, BRD3 BD1 (Homo sapiens, UniProt Q15059); assay: Bromoscan (Eurofins) binding: BRD3 BD1
T2 construct: T7 phage display (bromodomain fused to phage); purchased Eurofins (bromoscan service); host or cells: E. coli host derived from BL21, T7 phage
Description: (§1) Following the initial data from TPP, to further confirm the interaction of compound with BRD3, an in-vitro assay system named bromoscan (Eurofins) was employed to analyse the affinity of the (4S,7R)-configurated compound 12e against the two bromodomains of BRD3.
T7 phage strains displaying bromodomains were grown in 24-well blocks in an E. coli host derived from the BL21 strain. E. coli were grown to log-phase and infected with T7 phage from a frozen stock (multiplicity of infection=0.4) and incubated with shaking at 32° C. until lysis (90-150 minutes). The lysates were centrifuged (5,000×g) and filtered (0.2 μm) to remove cell debris. Streptavidin-coated magnetic beads were treated with biotinylated small molecule or acetylated peptide ligands for 30 minutes at room temperature to generate affinity resins for bromodomain assays. The liganded beads were blocked with excess biotin and washed with blocking buffer (SeaBlock (Pierce), 1% BSA, 0.05% Tween 20, 1 mM DTT) to remove unbound ligand and to reduce non-specific phage binding. […] Test compounds were prepared as 1000× stocks in 100% DMSO. Kds were determined using an 11-point 3-fold compound dilution series with one DMSO control point. All compounds for Kd measurements are distributed by acoustic transfer (non-contact dispensing) in 100% DMSO. […] The bromodomain concentration in the eluates was measured by qPCR. […]

RBL cells = assay: Cell viability by live-dead staining (cytotoxicity), flow cytometry; assay type: cell-based, Rat; details: Rattus norvegicus, RBL, cell viability via live/dead staining, 48-65 h, read-out: EC50 Toxicity
Summary of the method: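 RBL cells with coronin 1 promoter-GFP, mixed 1:1 with CMV promoter-RFP RBL cells, exposed to compound 48-65 h. Flow cytometry read RFP fluorescence for non-specific promoter inhibition and live-dead staining for cytotoxicity. EC50 values derived; cycloheximide positive control, DMSO negative.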

BRD3 BD2 = molecular target: T3, BRD3 BD2 (Homo sapiens, UniProt Q15059); assay: Bromoscan (Eurofins) binding: BRD3 BD2
T3 construct: T7 phage display (bromodomain fused to phage); purchased Eurofins (bromoscan service); host or cells: E. coli host derived from BL21, T7 phage
Description: as §1
T7 phage strains displaying bromodomains were grown in 24-well blocks in an E. coli host derived from the BL21 strain. E. coli were grown to log-phase and infected with T7 phage from a frozen stock (multiplicity of infection=0.4) and incubated with shaking at 32° C. until lysis (90-150 minutes). The lysates were centrifuged (5,000×g) and filtered (0.2 μm) to remove cell debris. Streptavidin-coated magnetic beads were treated with biotinylated small molecule or acetylated peptide ligands for 30 minutes at room temperature to generate affinity resins for bromodomain assays. The liganded beads were blocked with excess biotin and washed with blocking buffer (SeaBlock (Pierce), 1% BSA, 0.05% Tween 20, 1 mM DTT) to remove unbound ligand and to reduce non-specific phage binding. […] Test compounds were prepared as 1000× stocks in 100% DMSO. Kds were determined using an 11-point 3-fold compound dilution series with one DMSO control point. All compounds for Kd measurements are distributed by acoustic transfer (non-contact dispensing) in 100% DMSO. The compounds were then diluted directly into the assays such that the final concentration of DMSO was 0.09%. All reactions performed in polypropylene 384-well plates. Each was a final volume of 0.02 ml. The assay plates were incubated at room temperature with shaking for 1 hour and the affinity beads were washed with wash buffer (1×PBS, 0.05% Tween 20). The beads were then resuspended in elution buffer (1×PBS, 0.05% Tween 20, 2 μM non-biotinylated affinity ligand) and incubated at room temperature with shaking for 30 minutes. The bromodomain concentration in the eluates was measured by qPCR. The bromoscan analysis was done at Eurofins (FIG. 15).

coronin 1 promoter = assay: EC50 analysis for coronin 1 promoter driven GFP inhibition by flow cytometry in RBL cells; assay type: cell-based; details: for EC50: RBL, RBL cells, 48-65 h, flow cytometry
Summary of the method: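 RBL cells carrying coronin 1 promoter–GFP, mixed with CMV promoter–RFP cells, exposed to compounds 48–65 h and analyzed by flow cytometry with live/dead staining. EC50 derived from GFP inhibition, with RFP and viability as nonspecific and toxicity counter-reads; cycloheximide and DMSO as controls, relative potency normalized to a reference compound.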

coronin 1 = assay: Western blotting of coronin 1 protein levels in RBL cells; assay type: cell-based, Rat; details: 2 μg/ml, RBL cells
Description: buffer with 0.2% SDS containing protease and phosphatase inhibitors (Roche) at 4° C., followed by protein determination (BCA, Pierce) and SDS-PAGE with equal protein amounts transferred onto nitrocellulose and probed using antibodies against the indicated proteins (actin and coronin 1) followed by HRP-labeled secondary antibodies and developed using an enhanced chemi-luminescence imager (Fuji) (FIG. 3C).

[2] = tested on: imiquimod-induced psoriasis; assay: Imiquimod-induced mouse model for psoriasis; assay type: in vivo, mice (Balb/c); details: 50 mg/kg body weight, twice daily, topical route, day 4
Description: Wild type mice (Balb/c strain, 8-12 weeks), were age and sex matched. The dorsal skin was shaved with a trimmer on an area of ˜2 cm^2 and subjected to topical application of 5% imiquimod cream (Aldara) starting from day 1 and continued for up to 7 days in the morning. For compound administration, mice were applied topically with the compound, twice a day starting 48 hours before the first Imiquimod application and all along of the experiment up to day 7. In the morning, compound was applied 2 h prior to the imiquimod application (FIG. 12A). Mice were scored every day for the inflammatory lesion and general health status as follows: […]

CMV promoter = assay: EC50 analysis for CMV promoter driven RFP inhibition (non-specific activity) by flow cytometry in RBL cells; assay type: cell-based, cytomegalovirus; details: 48-65 h, read-out: EC50 RFP alteration
Description: RBL cells expressing GFP under coronin 1 promoter and optionally with RBL cells expressing RFP under CMV promoter were mixed in equal numbers and incubated with the compounds at indicated concentrations for 48-65 h and analyzed by flow cytometry for alteration in coronin 1 promoter (GFP fluorescence), CMV promoter (RFP fluorescence) values. In addition, the cells were labelled with live-dead marker for assessing cell viability status by flow cytometry. Cycloheximide (CHX) serves as positive control and DMSO serves as negative controls. Effective Concentration (EC50) values for coronin 1 promoter inhibition via GFP fluorescence analysis, non-specific promoter inhibition via CMV promoter driven-RFP fluorescence analysis and cell viability via live/dead staining as a measure for toxicity in flow cytometry for compounds (10-22 and 50a-65a) are shown in Table 6 and Table 7. Based on the EC50 analysis of the inhibition of coronin 1 promoter driven GFP fluorescence the (4S,7R)-configurated eutomers were identified (Structures FIG. 9A-C). This is exemplified for compounds containing two stereocenters by eutomers 11c and 13a. […] Subsequent EC50 evaluations (Table 7) were performed with compound 13a as standard for relative potency normalized to a value of 1.00 (relative potency calculated as [EC50 GFP inhibition 13a]/[EC50 GFP inhibition compound of interest]).

T3 sequence (Q15059 306-415 limits assumed): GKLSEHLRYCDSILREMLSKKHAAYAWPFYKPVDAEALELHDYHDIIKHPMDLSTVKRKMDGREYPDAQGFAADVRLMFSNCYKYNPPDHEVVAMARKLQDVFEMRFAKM
T2 sequence (Q15059 34-140 limits assumed): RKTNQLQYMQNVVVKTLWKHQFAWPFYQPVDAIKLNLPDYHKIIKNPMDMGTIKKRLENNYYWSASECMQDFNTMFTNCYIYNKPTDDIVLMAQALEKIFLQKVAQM
T1 sequence (D3ZWU1 1-725): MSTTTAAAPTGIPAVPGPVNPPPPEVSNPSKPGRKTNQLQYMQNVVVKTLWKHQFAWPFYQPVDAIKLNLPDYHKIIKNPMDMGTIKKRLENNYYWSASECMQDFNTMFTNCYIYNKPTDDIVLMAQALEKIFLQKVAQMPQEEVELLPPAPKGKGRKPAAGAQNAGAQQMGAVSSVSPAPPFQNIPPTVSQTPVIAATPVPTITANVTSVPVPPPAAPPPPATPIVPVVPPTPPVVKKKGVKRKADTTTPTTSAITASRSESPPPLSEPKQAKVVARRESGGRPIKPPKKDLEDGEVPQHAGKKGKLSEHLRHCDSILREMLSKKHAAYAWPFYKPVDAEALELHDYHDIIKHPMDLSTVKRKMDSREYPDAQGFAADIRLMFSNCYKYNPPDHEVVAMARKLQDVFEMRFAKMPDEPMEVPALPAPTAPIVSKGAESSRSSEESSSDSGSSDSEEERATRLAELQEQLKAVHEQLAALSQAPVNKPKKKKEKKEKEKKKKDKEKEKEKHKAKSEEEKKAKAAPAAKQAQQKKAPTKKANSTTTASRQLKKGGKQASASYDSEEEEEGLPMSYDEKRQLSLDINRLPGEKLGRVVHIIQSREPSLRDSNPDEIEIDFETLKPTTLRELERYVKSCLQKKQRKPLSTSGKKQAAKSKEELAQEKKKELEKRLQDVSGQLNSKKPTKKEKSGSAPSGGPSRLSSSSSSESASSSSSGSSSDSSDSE

Compound	Mixed Lymphocyte Responses (tritiated-thymidine uptake) [1]	increase of thermal denaturation of BRD3 (BRD3)	Kd (BRD3 BD1) [nM]	EC50 (RBL cells) [nM]	Kd (BRD3 BD2) [nM]	relative affinity for BRD3 bromodomains BD1 and BD2 (BRD3 BD2)	EC50 (coronin 1 promoter) [nM]	coronin 1 depletion by Western blot (coronin 1)	disease score (erythema, surface area affected, psoriatic plaque formation) [2]	EC50 (CMV promoter) [nM]	rel. potency GFP inhibition (coronin 1 promoter; [EC50 GFP inhibition 13a]/[EC50 GFP inhibition compound of interest], 13a = 1.00)
COc1ccccc1[C@H]1CC(=O)C2=C(C1)NC(C)=C(C(=O)OC[C@@H]1CCCO1)[C@H]2c1cccc(O)c1 [12e, tetrahydro-2-furanylmethyl (4S, 7R)-4-(3-hydroxyphenyl)-7-(2-methoxyphenyl)-2-methyl-5-oxo-1,4,5,6,7,8-hexahydro-3-quinolinecarboxylate]	inhibition	over four degrees Celsius	~200	> 20000	~10	higher affinity for the BD2 domain	70	showed coronin 1 depletion			
COc1ccccc1[C@H]1CC(=O)C2=C(C1)NC(C)=C(C(=O)OC1CCOCC1)[C@H]2c1cccc(O)c1 [13a, tetrahydro-2H-pyran-4-yl (4S, 7R)-4-(3-hydroxyphenyl)-7-(2-methoxyphenyl)-2-methyl-5-oxo-1,4,5,6,7,8-hexahydro-3-quinolinecarboxylate]			150	> 2500	4	higher affinity for the BD2 domain	65	showed coronin 1 depletion	suppresses autoimmune-inflammatory disease severity	> 2500	1.00
